Literature values in US20250331550A1, “AEROSOL-GENERATING ARTICLE EMBEDDED AVERSIVE AGENT” (PHILIP MORRIS PRODUCTS S.A., priority 2022, published 2025).
Where a name gives a salt, the structure may show the parent alone.

Tested on: test panel
Conditions: reciprocal of the dilution that still has a bitter taste; quinine hydrochloride set at 200,000
In the case of COC1=C[C@@H](C)[C@@H]2C[C@H]3OC(=O)C[C@H]4C(C)=C(OC)C(=O)[C@H]([C@@]2(C)C1=O)[C@@]34C [Quassin, quassin], the Bitterness value is given as 13,000,000.
In the case of C[C@@]12C[C@@H](c3ccoc3)OC(=O)[C@@H]1CC[C@]1(C)[C@H]2[C@@H]2C=C[C@@]1(O)C(=O)O2 [Columbin, columbin], the Bitterness value is given as 60,000,000.
In the case of C=C[C@H]1C[N@@]2CC[C@H]1C[C@H]2[C@H](O)c1ccnc2ccc(OC)cc12 [Quinine hydrochloride, quinine hydrochloride], the Bitterness value is given as 200,000.
For amarogentin, the Bitterness value is given as 58,000,000.
In the case of CC1=C[C@H]2[C@H]3[C@H](C(C)=C4[C@H]5OC(=O)[C@@H](C)[C@@H]5CC[C@](C)(O)[C@@H]43)[C@@]13[C@@H]2[C@@](C)(O)CC[C@H]1[C@H](C)C(=O)O[C@@H]13 [Absinthin, absinthin], the Bitterness value is listed as 3,000,000.
